How the values were obtained:
[1] = tested on: HCT116 human colorectal carcinoma cells; assay: CellTiter-Glo Luminescent Cell Viability Assay; assay type: cell-based; details: HCT-116, 72 h, 3 days
Method in brief: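 CellTiter-Glo luminescence gave viability after 3 days of compound exposure in HCT116 cells grown in DMEM/10% FBS. Final concentrations ran from 5 to 0.0002 […] in 1:3 steps, each in triplicate, with IC50 derived from the curves.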

[2] = biological target: T1, DDB1DB/DCAF15 and RBM39 R1R2 complex (Homo sapiens, UniProt Q14498+Q66K64); assay: DCAF15 RBM39 Complex Formation Assay (FRET); assay type: binding; details: FRET ratio Em 665/Em 615, incubated overnight at 4° C.
T1 construct: Amino acids 150 to 331 of RBM39 were cloned into pGEX4T3; GST (from vector pGEX4T3); TEV cleavage site (N); made in house; host or cells: DDB1DB/His-DCAF15: baculovirus/Sf9 co-expression; RBM39 R1R2: E. coli (pGEX4T3)
T1 sequence (Q66K64 whole entry, the tested form may be a part): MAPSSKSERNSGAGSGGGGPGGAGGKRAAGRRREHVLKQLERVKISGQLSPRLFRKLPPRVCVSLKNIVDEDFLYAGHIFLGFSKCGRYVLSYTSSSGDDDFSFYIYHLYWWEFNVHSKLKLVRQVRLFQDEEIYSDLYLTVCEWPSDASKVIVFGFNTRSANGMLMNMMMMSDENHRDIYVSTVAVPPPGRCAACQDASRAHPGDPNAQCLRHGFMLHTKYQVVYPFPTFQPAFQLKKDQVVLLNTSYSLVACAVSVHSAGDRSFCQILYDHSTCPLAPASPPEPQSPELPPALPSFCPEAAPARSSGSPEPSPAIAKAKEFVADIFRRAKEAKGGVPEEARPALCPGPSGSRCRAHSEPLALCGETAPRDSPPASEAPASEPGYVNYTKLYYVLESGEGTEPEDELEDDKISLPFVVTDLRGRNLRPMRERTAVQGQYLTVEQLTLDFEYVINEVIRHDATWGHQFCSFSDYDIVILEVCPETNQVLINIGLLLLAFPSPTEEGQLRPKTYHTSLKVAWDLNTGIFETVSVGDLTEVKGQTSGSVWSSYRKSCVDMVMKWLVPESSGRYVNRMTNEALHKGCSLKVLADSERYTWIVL
T1 sequence (Q14498 150-331): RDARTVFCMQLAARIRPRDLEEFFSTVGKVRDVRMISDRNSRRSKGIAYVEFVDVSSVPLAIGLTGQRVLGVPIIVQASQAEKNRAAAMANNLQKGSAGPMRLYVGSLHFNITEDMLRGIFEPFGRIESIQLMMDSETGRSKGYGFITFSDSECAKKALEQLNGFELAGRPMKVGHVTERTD
T1 sequence (Q16531 with tags, fused parts or gaps DEL396-708 partner): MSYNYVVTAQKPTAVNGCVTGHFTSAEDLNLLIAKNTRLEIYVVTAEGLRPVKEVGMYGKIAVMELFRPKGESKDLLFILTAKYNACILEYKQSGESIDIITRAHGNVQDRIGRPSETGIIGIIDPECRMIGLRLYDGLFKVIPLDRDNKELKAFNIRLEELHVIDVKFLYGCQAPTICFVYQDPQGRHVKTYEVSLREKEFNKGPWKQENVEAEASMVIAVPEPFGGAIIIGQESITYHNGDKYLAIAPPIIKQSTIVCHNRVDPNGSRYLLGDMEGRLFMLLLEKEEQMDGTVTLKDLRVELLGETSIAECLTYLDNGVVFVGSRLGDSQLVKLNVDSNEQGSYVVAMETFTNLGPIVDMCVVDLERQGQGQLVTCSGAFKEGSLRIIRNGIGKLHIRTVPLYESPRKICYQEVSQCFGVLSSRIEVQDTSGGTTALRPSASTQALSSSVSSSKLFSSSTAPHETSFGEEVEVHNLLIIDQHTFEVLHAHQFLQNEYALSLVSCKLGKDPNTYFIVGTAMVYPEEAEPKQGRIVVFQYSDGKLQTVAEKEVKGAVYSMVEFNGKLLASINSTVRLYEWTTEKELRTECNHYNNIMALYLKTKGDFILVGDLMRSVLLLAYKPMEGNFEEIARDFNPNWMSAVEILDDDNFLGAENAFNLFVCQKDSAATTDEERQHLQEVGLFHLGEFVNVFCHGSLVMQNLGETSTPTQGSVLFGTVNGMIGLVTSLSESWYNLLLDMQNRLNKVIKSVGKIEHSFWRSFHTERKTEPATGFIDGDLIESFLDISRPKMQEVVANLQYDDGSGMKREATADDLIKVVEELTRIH
Method in brief: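 Ternary complex formation read by TR-FRET (Em 665/615, excitation 340 nm) after overnight incubation at 4° C of 20 nM baculovirus DDB1DB/His-DCAF15 and 50 nM E. coli RBM39 RRM1-RRM2 FLAG fragment with 14-point, 3-fold compound dilutions from 1 μM; EC50 from 4-parameter fit.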

Structure (SMILES)	EC50 [1]	IC50 [2]
CC(C)(C)OC(=O)NCCn1cc(S(=O)(=O)Nc2cccc3c(Cl)c[nH]c23)cn1 [Compound 33, tert-butyl N-[2-[4-[(3-chloro-1H-indol-7-yl)sulfamoyl]pyrazol-1-yl]ethyl]carbamate]	> 1 µM	0.25 to 1 µM
CC(C)(C)n1cc(S(=O)(=O)Nc2cccc3c(Cl)c[nH]c23)cn1 [Compound 95, 1-tert-butyl-N-(3-chloro-1H-indol-7-yl)pyrazole-4-sulfonamide]	0.25 to 1 µM	< 0.25 µM
O=S(=O)(Nc1ccc(Cl)c2c(Cl)c[nH]c12)c1cnn(CCO)c1 [Compound 163, N-(3,4-dichloro-1H-indol-7-yl)-1-(2-hydroxyethyl)pyrazole-4-sulfonamide]	< 0.25 µM	< 0.25 µM
Cc1ccc(NS(=O)(=O)c2cnn(CC3(F)COC3)c2)c2[nH]cc(C#N)c12 [Compound 72, N-(3-cyano-4-methyl-1H-indol-7-yl)-1-[(3-fluorooxetan-3-yl)methyl]pyrazole-4-sulfonamide]	0.25 to 1 µM	< 0.25 µM
Cc1ccc(NS(=O)(=O)c2cnn(C3COC3)c2F)c2[nH]cc(C#N)c12 [Compound 144, N-(3-cyano-4-methyl-1H-indol-7-yl)-5-fluoro-1-(oxetan-3-yl)pyrazole-4-sulfonamide]	0.25 to 1 µM	< 0.25 µM
N#Cc1c[nH]c2c(NS(=O)(=O)c3cnn(CC(F)(F)F)c3)ccc(Cl)c12 [Compound 120, N-(4-chloro-3-cyano-1H-indol-7-yl)-1-(2,2,2-trifluoroethyl)pyrazole-4-sulfonamide]	< 0.25 µM	< 0.25 µM
CC(=O)N1CC(n2cc(S(=O)(=O)Nc3cccc4c(Cl)c[nH]c34)cn2)C1 [Compound 27, 1-(1-acetylazetidin-3-yl)-N-(3-chloro-1H-indol-7-yl)pyrazole-4-sulfonamide]	> 1 µM	< 0.25 µM
N#Cc1c[nH]c2c(NS(=O)(=O)c3cnn(CCO)c3)ccc(Cl)c12 [Compound 162, N-(4-chloro-3-cyano-1H-indol-7-yl)-1-(2-hydroxyethyl)pyrazole-4-sulfonamide]	0.25 to 1 µM	< 0.25 µM
Cn1cc(S(=O)(=O)Nc2cccc3c(C#N)c[nH]c23)cn1 [Compound 46, N-(3-cyano-1H-indol-7-yl)-1-methyl-pyrazole-4-sulfonamide]	0.25 to 1 µM	< 0.25 µM
Cn1ncc(S(=O)(=O)Nc2ccc(Cl)c3c(C#N)c[nH]c23)c1C(F)F [Compound 150, N-(4-chloro-3-cyano-1H-indol-7-yl)-5-(difluoromethyl)-1-methyl-pyrazole-4-sulfonamide]	0.25 to 1 µM	< 0.25 µM
CNC(=O)Cn1cc(S(=O)(=O)Nc2ccc(C)c3c(C#N)c[nH]c23)cn1 [Compound 139, 2-[4-[(3-cyano-4-methyl-1H-indol-7-yl)sulfamoyl]pyrazol-1-yl]-N-methyl-acetamide]	> 1 µM	< 0.25 µM
CC(C)(O)Cn1cc(S(=O)(=O)Nc2ccc(F)c3c(C#N)c[nH]c23)cn1 [Compound 192, N-(3-cyano-4-fluoro-1H-indol-7-yl)-1-(2-hydroxy-2-methyl-propyl)pyrazole-4-sulfonamide]	> 1 µM	< 0.25 µM
NCCn1cc(S(=O)(=O)Nc2cccc3c(Cl)c[nH]c23)cn1 [Compound 34, 1-(2-aminoethyl)-N-(3-chloro-1H-indol-7-yl)pyrazole-4-sulfonamide]	> 1 µM	< 0.25 µM
Cc1ccc(NS(=O)(=O)c2cnn(C)c2C(F)F)c2[nH]cc(C#N)c12 [Compound 149, N-(3-cyano-4-methyl-1H-indol-7-yl)-5-(difluoromethyl)-1-methyl-pyrazole-4-sulfonamide]	0.25 to 1 µM	< 0.25 µM
O=S(=O)(Nc1cccc2c(Cl)c[nH]c12)c1cnn(C2CCC2)c1 [Compound 47, N-(3-chloro-1H-indol-7-yl)-1-cyclobutyl-pyrazole-4-sulfonamide]	0.25 to 1 µM	< 0.25 µM
Cc1ccc(NS(=O)(=O)c2cnn(CC(=O)N3C[C@@H](F)[C@@H](F)C3)c2)c2[nH]cc(C#N)c12 [Compound 138, N-(3-cyano-4-methyl-1H-indol-7-yl)-1-[2-[(3R,4S)-3,4-difluoropyrrolidin-1-yl]-2-oxo-ethyl]pyrazole-4-sulfonamide]	> 1 µM	< 0.25 µM
O=S(=O)(Nc1cccc2c(Cl)c[nH]c12)c1cnn(C2CCNCC2)c1 [Compound 41, N-(3-chloro-1H-indol-7-yl)-1-(4-piperidyl)pyrazole-4-sulfonamide]	> 1 µM	0.25 to 1 µM
CC(CO)n1cc(S(=O)(=O)Nc2ccc(Cl)c3c(Cl)c[nH]c23)cn1 (stereo not shown) [Compound 172, N-(3,4-dichloro-1H-indol-7-yl)-1-(2-hydroxy-1-methyl-ethyl)pyrazole-4-sulfonamide]	0.25 to 1 µM	< 0.25 µM
Cn1ncc(S(=O)(=O)Nc2ccc(Cl)c3c(C#N)c[nH]c23)c1Cl [Compound 156, 5-chloro-N-(4-chloro-3-cyano-1H-indol-7-yl)-1-methyl-pyrazole-4-sulfonamide]	0.25 to 1 µM	< 0.25 µM
N#Cc1c[nH]c2c(NS(=O)(=O)c3cnn([C@H]4C[C@@H](O)C4)c3)ccc(Cl)c12 [Compound 174, N-(4-chloro-3-cyano-1H-indol-7-yl)-1-(3-hydroxycyclobutyl)pyrazole-4-sulfonamide]	0.25 to 1 µM	< 0.25 µM
Cc1ccc(NS(=O)(=O)c2cnn(C)c2)c2[nH]ccc12 [Compound 74, 1-methyl-N-(4-methyl-1H-indol-7-yl)pyrazole-4-sulfonamide]	> 1 µM	> 1 µM

Next, values leading:

EC50 [1]	IC50 [2]	Structure (SMILES)
< 0.25 µM	< 0.25 µM	Cc1ccc(NS(=O)(=O)c2cnn([C@H](C)CO)c2)c2[nH]cc(C#N)c12 [Compound 207, (R)—N-(3-cyano-4-methyl-1H-indol-7-yl)-1-(1-hydroxypropan-2-yl)-1H-pyrazole-4-sulfonamide]
0.25 to 1 µM	< 0.25 µM	C[C@H](O)[C@@H](C)n1cc(S(=O)(=O)Nc2ccc(Cl)c3c(C#N)c[nH]c23)cn1 [Compound 275, N-(4-chloro-3-cyano-1H-indol-7-yl)-1-[(1R,2S)-2-hydroxy-1-methyl-propyl]pyrazole-4-sulfonamide]
0.25 to 1 µM	< 0.25 µM	N#Cc1c[nH]c2c(NS(=O)(=O)c3cnn([C@@H](CO)CF)c3)ccc(Cl)c12 [Compound 238, N-(4-chloro-3-cyano-1H-indol-7-yl)-1-[(1S)-1-(fluoromethyl)-2-hydroxy-ethyl]pyrazole-4-sulfonamide]
0.25 to 1 µM	< 0.25 µM	Cn1ncc(S(=O)(=O)Nc2ccc(F)c3c(C#N)c[nH]c23)c1N [Compound 282, 5-amino-N-(3-cyano-4-fluoro-1H-indol-7-yl)-1-methyl-pyrazole-4-sulfonamide]
0.25 to 1 µM	< 0.25 µM	Cc1ccc(NS(=O)(=O)c2cn(CC(C)(C)O)nc2F)c2[nH]cc(C#N)c12 [Compound 205, N-(3-cyano-4-methyl-1H-indol-7-yl)-3-fluoro-1-(2-hydroxy-2-methyl-propyl)pyrazole-4-sulfonamide]
> 1 µM	< 0.25 µM	N#Cc1c[nH]c2c(NS(=O)(=O)c3cnn([C@@H](CO)CF)c3)ccc(F)c12 [Compound 247]
0.25 to 1 µM	< 0.25 µM	Cn1ncc(S(=O)(=O)Nc2cccc3c(C#N)c[nH]c23)c1N [Compound 299, 5-amino-N-(3-cyano-1H-indol-7-yl)-1-methyl-pyrazole-4-sulfonamide]
> 1 µM	< 0.25 µM	CC(C)(O)Cn1ncc(S(=O)(=O)Nc2ccc(F)c3c(C#N)c[nH]c23)c1Cl [Compound 280, 5-chloro-N-(3-cyano-4-fluoro-1H-indol-7-yl)-1-(2-hydroxy-2-methyl-propyl)pyrazole-4-sulfonamide]
0.25 to 1 µM	< 0.25 µM	Cc1ccc(NS(=O)(=O)c2cnn(C34CC(C3)C4)c2)c2[nH]cc(C#N)c12 [Compound 218, 1-(3-bicyclo[1.1.1]pentanyl)-N-(3-cyano-4-methyl-1H-indol-7-yl)pyrazole-4-sulfonamide]
0.25 to 1 µM	< 0.25 µM	CCn1cc(S(=O)(=O)Nc2ccc(F)c3c(C#N)c[nH]c23)c(N)n1 [Compound 291, 3-amino-N-(3-cyano-4-fluoro-1H-indol-7-yl)-1-ethyl-pyrazole-4-sulfonamide]
> 1 µM	< 0.25 µM	CC(C)(CO)n1cc(S(=O)(=O)Nc2cccc3c(C#N)c[nH]c23)c(Cl)n1 [Compound 253, 3-chloro-N-(3-cyano-1H-indol-7-yl)-1-(2-hydroxy-1,1-dimethyl-ethyl)pyrazole-4-sulfonamide]
0.25 to 1 µM	< 0.25 µM	N#Cc1c[nH]c2c(NS(=O)(=O)c3cnn(CC4(CO)CC4)c3)ccc(Cl)c12 [Compound 195, N-(4-chloro-3-cyano-1H-indol-7-yl)-1-[[1-(hydroxymethyl)cyclopropyl]methyl]pyrazole-4-sulfonamide]
0.25 to 1 µM	< 0.25 µM	N#Cc1c[nH]c2c(NS(=O)(=O)c3cnn(CF)c3)ccc(F)c12 [Compound 302, N-(3-cyano-4-fluoro-1H-indol-7-yl)-1-(fluoromethyl)pyrazole-4-sulfonamide]
0.25 to 1 µM	< 0.25 µM	N#Cc1c[nH]c2c(NS(=O)(=O)c3cnn(C45CC(C4)C5)c3)ccc(Cl)c12 [Compound 223, 1-(3-bicyclo[1.1.1]pentanyl)-N-(4-chloro-3-cyano-1H-indol-7-yl)pyrazole-4-sulfonamide]

Source: patent US20250368627A1, “PYRAZOLESULFONAMIDES AS ANTITUMOR AGENTS” (Peloton Therapeutics, Inc., a fully owned subsidiary of …, priority 2019, published 2025)
